Measurements: US7846671B2, “Methods of screening for agents that modulate the interaction of RGS and Gαq and urinary incontinence” (Bristol-Myers Squibb Company, priority 2002, dated 2010)
“Also recorded” adds a separate entry of the source.

What was measured:
[1] = molecular target: T1, RGS7/Gq (Homo sapiens, UniProt P49802+P50148); assay: Co-immunoprecipitation of Gq with RGS7 from transfected Hek 293 cells; assay type: binding; conditions: immunoprecipitation blot
T1 sequence (P49802 1-469 isoform P49802-2): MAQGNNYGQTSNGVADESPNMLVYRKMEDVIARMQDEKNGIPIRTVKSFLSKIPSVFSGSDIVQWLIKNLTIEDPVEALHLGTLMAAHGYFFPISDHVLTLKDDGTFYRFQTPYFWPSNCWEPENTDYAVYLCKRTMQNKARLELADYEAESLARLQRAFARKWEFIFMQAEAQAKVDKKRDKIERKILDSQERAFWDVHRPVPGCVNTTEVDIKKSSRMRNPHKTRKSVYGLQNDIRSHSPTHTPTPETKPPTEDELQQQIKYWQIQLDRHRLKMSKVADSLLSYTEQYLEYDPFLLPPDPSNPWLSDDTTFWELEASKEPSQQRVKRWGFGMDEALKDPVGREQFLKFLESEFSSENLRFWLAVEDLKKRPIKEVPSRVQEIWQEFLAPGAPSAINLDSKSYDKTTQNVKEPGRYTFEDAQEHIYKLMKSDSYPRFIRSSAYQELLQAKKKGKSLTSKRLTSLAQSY
T1 sequence (P50148 1-359): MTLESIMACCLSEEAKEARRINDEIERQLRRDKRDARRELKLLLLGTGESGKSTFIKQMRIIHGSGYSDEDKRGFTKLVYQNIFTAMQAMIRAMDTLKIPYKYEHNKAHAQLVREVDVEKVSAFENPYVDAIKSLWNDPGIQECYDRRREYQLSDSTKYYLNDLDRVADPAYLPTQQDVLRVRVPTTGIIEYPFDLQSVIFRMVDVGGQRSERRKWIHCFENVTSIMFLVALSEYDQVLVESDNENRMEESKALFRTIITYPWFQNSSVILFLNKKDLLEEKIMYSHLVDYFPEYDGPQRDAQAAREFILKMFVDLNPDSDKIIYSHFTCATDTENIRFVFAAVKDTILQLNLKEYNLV
T1 sequence (O14775 43-395 partner limits assumed): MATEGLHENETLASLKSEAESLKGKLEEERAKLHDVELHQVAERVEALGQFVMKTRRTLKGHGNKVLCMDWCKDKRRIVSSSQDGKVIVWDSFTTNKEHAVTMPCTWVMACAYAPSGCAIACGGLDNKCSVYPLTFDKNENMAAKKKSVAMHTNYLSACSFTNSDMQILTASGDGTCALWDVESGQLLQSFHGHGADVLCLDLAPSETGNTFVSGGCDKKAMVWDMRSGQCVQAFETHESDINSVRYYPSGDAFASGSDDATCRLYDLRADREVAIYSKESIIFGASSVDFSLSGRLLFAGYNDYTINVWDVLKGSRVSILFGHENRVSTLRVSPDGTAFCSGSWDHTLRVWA
Protocol: Hek 293 cells were transfected with CMV-G alpha qHA, CMV-mycRGS-7 and CMV-Gbeta5. 48 hours later the cells were harvested and lysed. Antibody to the myc epitope was utilized to immunoprecipitate RGS-7 in the presence or absence of ALF4-. The precipitated proteins were split into two fractions and loaded onto gels and western blotted on to nitrocellulose. In FIG. 6, the left blot (1) was probed with anti-myc antibody to detect RGS-7. RGS-7 was immunoprecipitated by the anti-myc antibody in the presence and absence of ALF4-. […] A G alpha q protein band was detected to have associated with RGS-7 and precipitated in the presence of ALF4- (lanes A) but not in the absence of ALF4- (lane B). In the second experiment, RGS-7 was immuno-precipitated again with the Myc epitope to which it was fused and the presence of G alpha q was detected in the presence or absence of ALF4- or different concentrations of Compound III. […] This increase in RGS-7 affinity would be predicted to be the same for other RGS7 family members such as RGS 6,9 and 11, as they have been shown previously to have similar affinities and effects on G alpha q. In addition this assay provides a method for screening for compounds that affect the interaction of RGS proteins and G alpha q.
In FIG. 5B, Compounds I, II and III affect the affinity of Gq and RGS proteins for one another. FIG. 5B is an immunoprecipitation blot of myc tagged RGS which has been probed with an anti hemagglutinin antibody to detect a hemagglutinin tagged Gαq. […] The ability of Compounds I, II and III to increase the affinity of Gq and RGS is a novel mechanism by which one can Gαq activity and such compounds and screens for additional compounds with such activity are useful wherever one desires to antagonize g protein signaling that involves Gαq and RGS proteins. […]

[2] = tested on: C. elegans; assay: C. elegans compound treatment: neuromuscular and egg-laying phenotypes
Protocol: C. elegans strains were cultured and maintained according to standard procedures (Brenner, 1974; Hodgkin, 1988). All strains were assayed at 20° C. unless otherwise indicated. compound was mixed with killed bacteria slurry (strain OP50, taken through multiple freeze-thaw cycles) to 2× desired final concentration. Adult wildtype (Bristol N2) or mutant hermaphrodites were collected in M9. Worms were mixed 1:1 with compound/bacteria mixture, and plated on peptone-free NGM plates. Plates were allowed to dry, and then placed at 20° C. until assayed. For egg-laying assays, adults were treated overnight with compound. Approximately thirty animals were loaded onto agar pads made on glass slides and examined under Nomarski optics. Animals were scored as egg-laying defective if they contained>comma stage embryos.

[3] = tested on: rat bladder strips; assay: Isolated rat bladder strips: inhibition of carbachol-evoked contraction
Protocol: Isolated Rat Bladder Strips
Male rats (Harlan, Sprague Dawley, 250-350 g) were sacrificed by decapitation, the bladder removed and cleaned of connective tissue. Strips of bladder were then cut from the bladder body and each was placed in an organ bath, suspended between a fixed hook and a force transducer, containing oxygenated physiological buffer (composition in mM: NaCl 118.4, KCl 4.7, KH2PO4 1.2, MgSO4 1.3, CaCl2 1.8, glucose 10.1, NaHCO3 25, gassed with 95%O2/5%CO2) and maintained at 37° C. Force generated by the bladder strips was recorded and measured using an AcqKnowledge data acquisition system (AcqKnowledge for MP100WS, Biopac Systems Inc., Goleta, Calif.).
The bladder strips were primed by stimulating them with 10 μM carbachol to evoke a contraction. The strips were then washed multiple times with fresh physiological buffer and allowed to fully relax. Following a period of recovery, the strips were again challenged with 10 μM carbachol to produce a contraction; this contractile response served as the control response. The strips were again washed multiple times and allowed to fully relax (45 minutes). Test compound or vehicle was then added to each organ bath. Following a one hour incubation period, the strips were again stimulated with 10 μM carbachol and the contractile response measured.
The percent inhibition of the carbachol response by the test compounds was calculated by comparing control and post-compound carbachol responses corrected for vehicle effects.

[4] = tested on: Gq signaling in Hek 293 kidney cells; assay: [Ca2+]i measurement, carbachol-induced calcium signal in HEK 293 cells; assay type: cell-based, human
Protocol: • 1. HEK 293 or Clonetics primary human bladder smooth muscle cells were plated at a concentration of 7e3 cells/well in Poly-L lysine coated 96 well plates, white with clear bottoms (Costar). • 2. The plates are allowed to attach overnight at 37° C. 5%CO2. The cells were rinsed 2× with Krebs-HEPES buffer and then loaded with 4 uM Fluo4 (Molecular Probes) for 60 minutes in the same buffer containing 1% (wt/vol) Pluronic F-127 and 0.25 mM sulfinpyrazone. • 3. After loading the cells were rinsed 3× with Krebs-HEPES buffer containing 0.5% (wt/vol) BSA (Sigma Chemical) • 4. Buffer alone or buffer containing test compounds, was injected sequentially into separate wells and the fluorescence intensity monitored in a Victor2 96 well plate fluorometer (PE-Wallac). Measurements were taken at 1-s intervals using an excitation wavelength of 485 nm and emissions filter of 535 nm. • 5. Five baseline measurements were taken at 1-s intervals prior to each injection (see FIGS. 4A and 4B).
Calcium assays were run by standard protocols as described above and in Zhu et al., 1998, J. Biol Chem 273:133-142. It is known that calcium signals in response to carbachol have both a Gq and a Go/Gi signaling component. Pertussis toxin is a known inhibitor of Go/Gi signaling in cells. We asked the question if Compound I was inhibiting Gq or Go/Gi signals in Hek 293 kidney cells. […] to block the Go/I but not Gq signals. […] If however Compound I were inhibiting Gq signal specifically, then we would expect the combination of pertussis toxin (hitting Go/Gi) and Gq.

Compound | Affinity of RGS7 and Gq (Gq co-precipitated with myc-RGS-7) [1] | Neuromuscular defects (pharyngeal pumping, body movement, egg-laying) [2] | Relaxation of bladder smooth muscle strips contracted with carbachol [3] | inhibition at 10 µM ([3]; Rattus norvegicus, 10 μM compound, 1 h incubation, 10 μM carbachol, read-out: Inhibition of the carbachol response) [%] | Carbachol induced calcium influxes [4] | Combined effect with pertussis toxin on carbachol calcium signal [4] | Effect on function of human RGS and Gq signaling proteins via Ca++ signaling [4] | Gq versus Go/Gi specificity of calcium signal inhibition ([4]; carbachol) | inhibition at 3 µM ([3]; Rattus norvegicus, 3 μM compound, 1 h incubation, 10 μM carbachol, read-out: Inhibition of the carbachol response) [%]
O=c1[nH]c(-c2ccc(C(F)(F)F)cc2)nn1-c1cc(Cl)ccc1O [Compound I] | increase the affinity of RGS7 with Gq; also recorded: clearly increase the affinity of Gq for RGS | causes neuromuscular defects | capable of relaxing strips of bladder smooth muscle | 40 to 60 | blocked | cumulative | clearly able to effect the function of Gq and RGS | specifically inhibiting Gq signaling and not Go/Gi | –
Alf4- [reference compound] | increases its affinity with RGS | – | – | – | – | – | – | – | –
O=c1[nH]c(-c2ccc(Br)s2)nn1-c1cc(Cl)c(Br)cc1O [Compound II, 2-(4-bromo-5-chloro-2-hydroxyphenyl)-2,4-dihydro-5-(5-bromothien-2-yl)-3H-1,2,4-triazol-3-one] | clearly increase the affinity of Gq for RGS | – | – | – | blocked | – | – | – | 20 to 40
